# Results: patent US12630498B2 (Genzyme Corporation, priority 2019, dated 2026)
# What was measured:
# [1] = target: T1, human Cystic Fibrosis Transmembrane Conductance Regulator (CFTR) harboring the ΔF508 mutation (Homo sapiens, UniProt P13569, DEL508-508); assay: H441 cell ΔF508-CFTR-HRP cell surface assay (Emax and EC50); type: cell-based; details: for Emax: NCI-H441, NA = Not active
# T1 construct: expressed in transfected cells; host or cells: H441 carcinoma line (G418-selected)
# In short: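 H441 and 41o- bronchial epithelial cells expressing ΔF508-CFTR with an extracellular-loop-4 HRP tag were treated with a 15-point compound series (24.5–0.001 μM) for two nights, H441 at 27° C, 41o- at 37° C with 0.0005 mg/ml doxycycline. Surface HRP luminescence read; % of maximum VX809 signal and EC50 derived.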
# [2] = target: T2, CFTR-mediated transepithelial chloride transport in primary human bronchial epithelial cells from a ΔF508 homozygous CF donor (Homo sapiens, UniProt P13569, DEL508-508); assay: TECC24 recording of CFTR-mediated transepithelial chloride transport in CF-HBE cells (AUC fold over DMSO); type: cell-based; details: test agent 10 μM, 48 hours incubation, AUC of forskolin-stimulated IEQ relative to DMSO
# T2 construct: Primary human bronchial epithelial cells from a ΔF508 homozygous CF donor; host or cells: primary CF-HBE cells, ΔF508 homozygous donor
# T2 sequence (P13569 with tags, fused parts or gaps DEL508-508): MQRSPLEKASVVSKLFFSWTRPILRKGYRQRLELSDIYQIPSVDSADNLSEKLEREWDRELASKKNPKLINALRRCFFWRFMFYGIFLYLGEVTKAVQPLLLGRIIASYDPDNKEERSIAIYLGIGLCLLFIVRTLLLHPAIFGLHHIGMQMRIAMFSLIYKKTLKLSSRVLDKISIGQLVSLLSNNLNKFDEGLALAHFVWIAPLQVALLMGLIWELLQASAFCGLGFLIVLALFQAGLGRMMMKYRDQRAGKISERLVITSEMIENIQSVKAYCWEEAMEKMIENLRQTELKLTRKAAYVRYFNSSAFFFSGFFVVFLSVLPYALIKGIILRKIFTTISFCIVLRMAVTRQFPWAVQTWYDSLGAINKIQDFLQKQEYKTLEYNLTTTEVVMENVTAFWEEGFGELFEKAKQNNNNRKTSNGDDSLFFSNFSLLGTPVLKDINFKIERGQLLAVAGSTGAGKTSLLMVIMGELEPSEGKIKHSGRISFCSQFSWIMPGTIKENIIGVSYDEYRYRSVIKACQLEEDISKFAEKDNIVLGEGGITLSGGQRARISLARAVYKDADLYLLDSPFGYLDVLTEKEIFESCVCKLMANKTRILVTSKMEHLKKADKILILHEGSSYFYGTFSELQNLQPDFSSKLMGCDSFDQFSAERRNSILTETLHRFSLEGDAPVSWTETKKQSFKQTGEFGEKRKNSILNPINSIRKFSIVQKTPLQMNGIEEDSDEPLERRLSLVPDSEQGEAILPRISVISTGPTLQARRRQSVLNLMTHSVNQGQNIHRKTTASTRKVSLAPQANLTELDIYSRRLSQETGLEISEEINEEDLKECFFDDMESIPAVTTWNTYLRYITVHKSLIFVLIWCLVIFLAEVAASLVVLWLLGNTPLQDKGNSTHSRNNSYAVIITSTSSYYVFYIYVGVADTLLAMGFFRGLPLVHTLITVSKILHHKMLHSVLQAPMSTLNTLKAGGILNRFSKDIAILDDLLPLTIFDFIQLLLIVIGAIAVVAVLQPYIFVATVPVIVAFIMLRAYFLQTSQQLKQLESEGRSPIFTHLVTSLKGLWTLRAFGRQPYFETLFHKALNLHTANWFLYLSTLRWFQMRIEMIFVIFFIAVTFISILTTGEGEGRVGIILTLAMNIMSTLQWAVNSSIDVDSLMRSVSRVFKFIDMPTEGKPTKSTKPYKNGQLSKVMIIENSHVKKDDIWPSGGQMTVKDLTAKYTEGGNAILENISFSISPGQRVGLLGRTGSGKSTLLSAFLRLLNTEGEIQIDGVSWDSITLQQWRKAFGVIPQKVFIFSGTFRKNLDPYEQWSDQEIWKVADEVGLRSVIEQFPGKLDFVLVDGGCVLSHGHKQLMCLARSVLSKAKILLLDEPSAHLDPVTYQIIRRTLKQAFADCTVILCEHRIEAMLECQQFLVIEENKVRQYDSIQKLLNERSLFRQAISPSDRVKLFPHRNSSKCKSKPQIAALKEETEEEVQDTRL
# In short: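 Primary ΔF508/ΔF508 CF-HBE cells on inserts exposed to test agent in IL-13-containing medium for 48 h at 36.5 °C. Current-clamp VT/TEER recording in pH 7.4 HEPES saline with benzamil 10 μM, forskolin 10 μM, then CFTRinh-172 20 μM. AUC of equivalent Cl⁻ current between forskolin and inhibitor, expressed as ratio over vehicle.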
# T1 sequence (P13569 with tags, fused parts or gaps DEL508-508): as above
Structure (SMILES),EC50 [1] [µM],Emax [1] [%],TECC24 AUC fold over DMSO @10 μM [2]
"O=C(N[C@H](C(=O)O)c1cccc2ccccc12)c1ccc2ccccc2c1OCc1ccc(C(F)(F)F)cc1 [Example 142, (S)-2-(naphthalen-1-yl)-2-(1-((4-(trifluoromethyl)benzyl)oxy)-2-naphthamido)acetic Acid]",2.2,86.9,C (“C” refers to AUC @10 uM <4)
"O=C(N[C@H](C(=O)O)C(c1ccccc1)c1ccccc1)c1ccc2ccccc2c1OCC1CCCCC1 [Example 199, (S)-2-(1-(cyclohexylmethoxy)-2-naphthamido)-3,3-diphenylpropanoic Acid]",0.5,129,C (“C” refers to AUC @10 uM <4)
"CCC(C)(C)[C@H](NC(=O)c1ccc2cc(F)ccc2c1OCc1ccc(SC(F)(F)F)cc1)C(=O)O [Example 84, (S)-2-(6-fluoro-1-((4-((trifluoromethyl)thio)benzyl)oxy)-2-naphthamido)-3,3-dimethylpentanoic Acid]",0.5,80.5,B (“B” refers to AUC @10 uM between 4-6)
"CC(C)(C)[C@H](NC(=O)c1ccc2cc(N)ccc2c1OCc1ccc(C(F)(F)F)cc1)C(=O)O [Example 52, (S)-2-(6-amino-1-((4-(trifluoromethyl)benzyl)oxy)-2-naphthamido)-3,3-dimethylbutanoic Acid]",7.3,91.4,C (“C” refers to AUC @10 uM <4)
"CC(C)(C)[C@H](NC(=O)c1ccc2cc(F)ccc2c1OCc1ccc(SC(F)(F)F)cc1)C(=O)O [Example 75, (S)-2-(6-fluoro-1-((4-((trifluoromethyl)thio)benzyl)oxy)-2-naphthamido)-3,3-dimethylbutanoic Acid]",0.7,94.2,B (“B” refers to AUC @10 uM between 4-6)
"COC(=O)c1ccc(COc2c(C(=O)N[C@H](C(=O)O)C(C)(C)C)ccc3ccccc23)cc1 [Example 28, (S)-2-(1-((4-(methoxycarbonyl)benzyl)oxy)-2-naphthamido)-3,3-dimethylbutanoic Acid]",4.9,70.2,C (“C” refers to AUC @10 uM <4)
"O=C(N[C@@H](Cc1ccc(C(F)(F)F)cc1)C(=O)O)c1ccc2cc(F)ccc2c1OCc1ccc(C(F)(F)F)cc1 [Example 197, (S)-2-(6-fluoro-1-((4-(trifluoromethyl)benzyl)oxy)-2-naphthamido)-3-(4-(trifluoromethyl)phenyl)propanoic Acid]",11.5,80.8,B (“B” refers to AUC @10 uM between 4-6)
"CCC(C)(C)[C@H](NC(=O)c1ccc2c(F)cccc2c1OCc1ccc(OC(F)(F)F)cc1)C(=O)O [Example 226, (2S)-2-[[5-fluoro-1-[[4-(trifluoromethoxy)phenyl]methoxy]naphthalene-2-carbonyl]amino]-3,3-dimethyl-pentanoic Acid]",0.4,139,B (“B” refers to AUC @10 uM between 4-6)
"CC(C)(c1ccccc1)[C@H](NC(=O)c1ccc2ccccc2c1OCc1ccc(C(F)(F)F)cc1)C(=O)O [Example 9, (S)-3-methyl-3-phenyl-2-(1-((4-(trifluoromethyl)benzyl)oxy)-2-naphthamido)butanoic Acid]",1.1,88.4,C (“C” refers to AUC @10 uM <4)
"CC(C)(SCC1CC1(F)F)[C@H](NC(=O)c1ccc2cc(F)ccc2c1OCc1ccc(SC(F)(F)F)cc1)C(=O)O (stereo partly drawn) [Example 167, (2R)-3-(((2,2-difluorocyclopropyl)methyl)thio)-2-(6-fluoro-1-((4-((trifluoromethyl)thio)benzyl)oxy)-2-naphthamido)-3-methylbutanoic Acid]",1.2,63.5,C (“C” refers to AUC @10 uM <4)
"CC(C)(C)[C@H](NC(=O)c1ccc2ccc(C#N)cc2c1OCc1ccc(OC(F)(F)F)cc1)C(=O)O [Example 254, (2S)-2-[[7-cyano-1-[[4-(trifluoromethoxy)phenyl]methoxy]naphthalene-2-carbonyl]amino]-3,3-dimethyl-butanoic Acid]",0.7,176,A (“A” refers to AUC @10 uM >6)
"CC(C)(C)[C@H](NC(=O)c1ccc2c(F)cccc2c1OCc1ccc(C(F)(F)F)cc1)C(=O)O [Example 236, (2S)-2-[[5-fluoro-1-[[4-(trifluoromethyl)phenyl]methoxy]naphthalene-2-carbonyl]amino]-3,3-dimethyl-butanoic Acid]",1,130,B (“B” refers to AUC @10 uM between 4-6)
C[C@@H](OCc1ccccc1)[C@H](NC(=O)c1ccc2ccccc2c1OCc1ccc(Cl)c(Cl)c1)C(=O)O (stereo in doubt) [Example 206],,4.7,C (“C” refers to AUC @10 uM <4)
"O=C(N[C@H](C(=O)O)c1ccccc1)c1ccc2ccccc2c1OCc1ccc(C(F)(F)F)cc1 [Example 140, (S)-2-phenyl-2-(1-((4-(trifluoromethyl)benzyl)oxy)-2-naphthamido)acetic Acid]",5.7,82.9,C (“C” refers to AUC @10 uM <4)
"O=C(N[C@@H](Cc1ccc(C(F)(F)F)cc1)C(=O)O)c1ccc2cc(F)ccc2c1OCc1nc2ccccc2s1 [Example 217, (S)-2-(1-(benzo[d]thiazol-2-ylmethoxy)-6-fluoro-2-naphthamido)-3-(4-(trifluoromethyl)phenyl)propanoic Acid]",15.9,65.8,C (“C” refers to AUC @10 uM <4)

# The next lines start with the values.
EC50 [1] [µM],Emax [1] [%],TECC24 AUC fold over DMSO @10 μM [2],Structure (SMILES)
0.2,227,A (“A” refers to AUC @10 uM >6),"CC1([C@H](NC(=O)c2ccc3ccc(C(F)(F)F)cc3c2OCc2ccc(C(F)(F)F)cc2)C(=O)O)CCC1 [Example 299, (S)-2-(1-methylcyclobutyl)-2-(7-(trifluoromethyl)-1-((4-(trifluoromethyl)benzyl)oxy)-2-naphthamido)acetic Acid]"
0.1,217,A (“A” refers to AUC @10 uM >6),"CC1([C@H](NC(=O)c2ccc3ccc(C(F)(F)F)cc3c2OCc2ccc(C(F)(F)F)cc2)C(=O)O)CCCC1 [Example 301, (S)-2-(1-methylcyclopentyl)-2-(7-(trifluoromethyl)-1-((4-(trifluoromethyl)benzyl)oxy)-2-naphthamido)acetic Acid]"
0.4,233,A (“A” refers to AUC @10 uM >6),"CCC1([C@H](NC(=O)c2ccc3ccc(F)cc3c2OCc2ccc(C(F)(F)F)cc2)C(=O)O)CCCC1 [Example 314, (S)-2-(1-ethylcyclopentyl)-2-(7-fluoro-1-((4-(trifluoromethyl)benzyl)oxy)-2-naphthamido)acetic Acid]"
0.3,309,A (“A” refers to AUC @10 uM >6),"CCC(C)(C)[C@H](NC(=O)c1ccc2ccc(C)cc2c1OCc1ccc(OC(F)(F)F)cc1)C(=O)O [Example 280, (S)-3,3-dimethyl-2-(7-methyl-1-((4-(trifluoromethoxy)benzyl)oxy)-2-naphthamido)pentanoic Acid]"
0.5,345,A (“A” refers to AUC @10 uM >6),"CCC(C)(C)[C@H](NC(=O)c1ccc2ccc(OC)cc2c1OCc1ccc(OC(F)(F)F)cc1)C(=O)O [Example 311, (S)-2-(7-methoxy-1-((4-(trifluoromethoxy)benzyl)oxy)-2-naphthamido)-3,3-dimethylpentanoic Acid]"
1.7,63.7,A (“A” refers to AUC @10 uM >6),"CC(C)(C)[C@@H](NC(=O)c1ccc2ccc(F)cc2c1OCc1ccc(OC(F)(F)F)cc1)C(=O)O [Example 259, (2R)-2-[[7-fluoro-1-[[4-(trifluoromethoxy)phenyl]methoxy]naphthalene-2-carbonyl]amino]-3,3-dimethyl-butanoic Acid]"
0.3,57.1,C (“C” refers to AUC @10 uM <4),"CC(C)(C)[C@@H](NC(=O)c1ccc2ccc(C(F)(F)F)cc2c1OCc1ccc(OC(F)(F)F)cc1)C(=O)O [Example 287, (R)-3,3-dimethyl-2-(1-((4-(trifluoromethoxy)benzyl)oxy)-7-(trifluoromethyl)-2-naphthamido)butanoic Acid]"
0.9,68.4,A (“A” refers to AUC @10 uM >6),"CC(C)(C)[C@@H](NC(=O)c1ccc2ccc(F)cc2c1OCc1ccc(C(F)(F)F)cc1)C(=O)O [Example 261, (2R)-2-[[7-fluoro-1-[[4-(trifluoromethyl)phenyl]methoxy]naphthalene-2-carbonyl]amino]-3,3-dimethyl-butanoic Acid]"
1.5,70.2,C (“C” refers to AUC @10 uM <4),"CC(C)Oc1ccc2c(OCc3ccc(C(F)(F)F)cc3)c(C(=O)N[C@H](C(=O)O)C(C)(C)C)ccc2c1 [Example 260, (2S)-2-[[6-isopropoxy-1-[[4-(trifluoromethyl)phenyl]methoxy]naphthalene-2-carbonyl]amino]-3,3-dimethyl-butanoic Acid]"
